Measured values as given in PMC7251097, “Aspartate/asparagine-β-hydroxylase: a high-throughput mass spectrometric assay for discovery of small molecule inhibitors” (Scientific Reports, 2020).
Structures can show the parent of a compound that is named as a salt. Where two headings read alike, the source gives them in different places. Each block holds one molecule with its values, some of them ahead of it. Starred links: 1 amine or outer side, 2 acyl side, 3 side chain; linkers in the order of their positions; H or OH if unused. Non-standard residues stand in square brackets, D forms with d. Residues, ends and D or L forms follow the SMILES beside them. X1 = NCCCC[C@H](N)CN([C@@H](CCCCN)C(=O)[*:2])[*:1]; Tle = CC(C)(C)[C@H](N)C(=O)O

Target: T1, His6-AspH315–758 (human aspartate/asparagine-β-hydroxylase, AspH) (Homo sapiens, UniProt Q12797)
T1 construct: N-Terminally His6-tagged human AspH315–758 (His6-AspH315–758) was produced in E. coli BL21 (DE3) cells; made in house; host or cells: E. coli BL21 (DE3), pET-28a(+) vector
T1 sequence (Q12797 315-758): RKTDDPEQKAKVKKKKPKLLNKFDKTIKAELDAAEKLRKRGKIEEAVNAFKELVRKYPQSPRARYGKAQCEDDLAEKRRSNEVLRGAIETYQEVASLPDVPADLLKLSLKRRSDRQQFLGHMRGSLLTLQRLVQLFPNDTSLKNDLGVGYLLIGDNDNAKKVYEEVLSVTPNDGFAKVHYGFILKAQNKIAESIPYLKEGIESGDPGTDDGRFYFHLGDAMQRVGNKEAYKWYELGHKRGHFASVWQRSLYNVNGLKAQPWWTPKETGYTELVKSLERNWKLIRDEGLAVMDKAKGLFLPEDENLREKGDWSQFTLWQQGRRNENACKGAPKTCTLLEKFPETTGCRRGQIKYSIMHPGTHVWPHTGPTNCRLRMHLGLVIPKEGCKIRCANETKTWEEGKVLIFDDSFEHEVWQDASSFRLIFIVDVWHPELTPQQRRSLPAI
Experiment: SPE-MS AspH inhibition assay (LOPAC screen at fixed 20 μM and IC50 dose-response), hydroxylation of cyclic peptide hFX-CP101–119
Type: biochemical
Conditions: for Plate 5 (% inhibition) / Plate 5 (% conversion): plate 5 (Pfitzer), test compounds at fixed 20 μM; for Plate 5 (% conversion): mean conversion DMSO 32.88; for Inhibition at 20 µM [%]: AspH activity, fixed compound concentration 20 μM, initial LOPAC screen, 0.5%v/v DMSO

[1] = LOPAC compound at 20uM, plate 3, conversion of substrate peptide
[2] = LOPAC compound at fixed 20 uM, plate 1, normalised to DMSO and 2,4-PDCA controls
[3] = LOPAC compound at fixed 20 uM, substrate conversion, plate 1
[4] = LOPAC Plate 4, compound at 20 uM, substrate conversion
[5] = LOPAC Plate 4, compound at 20 uM

SMILES: CS(=O)(=O)O.Cc1c(O)cccc1C(=O)N[C@@H](CSc1ccccc1)[C@H](O)CN1C[C@H]2CCCC[C@H]2C[C@H]1C(=O)NC(C)(C)C.O [Nelfinavir mesylate hydrate]
Plate 2 (% conversion) (LOPAC compound at 20uM, plate 2, conversion of substrate peptide): 32.94%
Plate 2 (% inhibition) (LOPAC compound at 20uM, plate 2, normalised to DMSO and 2,4-PDCA controls): 9.02%

SMILES: Cc1c(O)cccc1C(=O)N[C@@H](CSc1ccccc1)[C@H](O)CN1C[C@H]2CCCC[C@H]2C[C@H]1C(=O)NC(C)(C)C [Nelfinavir]
Plate 5 (% inhibition): 38.58%
Plate 5 (% conversion): 23.19%

SMILES: CCOC(=O)C1=C(C)NC(C)=C(C(=O)OCC)C1c1c(F)c(F)c(F)c(F)c1F [Nemadipine-A]
Plate 3 (% conversion) [1]: 41.91%

SMILES: CN(C)C(=O)Oc1cccc([N+](C)(C)C)c1 [Neostigmine bromide]
Plate 3 (% conversion): 40.63%

SMILES: COC(=O)C1=C(C)NC(C)=C(C(=O)OCCN(C)Cc2ccccc2)C1c1cccc([N+](=O)[O-])c1 (stereo not shown) [Nicardipine hydrochloride]
Plate 3 (% conversion) [1]: 44.76%

SMILES: COC(=O)C1=C(C)NC(C)=C(C(=O)OC)C1c1ccccc1[N+](=O)[O-] [Nifedipine]
Plate 3 (% conversion): 39.50%

SMILES: O=C(O)c1cccnc1Nc1cccc(C(F)(F)F)c1 [Niflumic acid]
Plate 3 (% conversion) [1]: 32.98%

SMILES: COCCOC(=O)C1=C(C)NC(C)=C(C(=O)OC(C)C)C1c1cccc([N+](=O)[O-])c1 (stereo not shown) [Nimodipine]
Plate 3 (% conversion) [1]: 43.84%

SMILES: Cc1ncc(CNC(=O)N(CCCl)N=O)c(N)n1 [Nimustine hydrochloride]
Plate 3 (% conversion): 38.40%

SMILES: CNCCC(Oc1ccccc1OC)c1ccccc1 (stereo not shown) [Nisoxetine hydrochloride]
Plate 3 (% conversion): 39.53%

SMILES: CCOC(=O)C1=C(C)NC(C)=C(C(=O)OC)C1c1cccc([N+](=O)[O-])c1 (stereo not shown) [Nitrendipine]
Plate 3 (% conversion) [1]: 38.78%

SMILES: COC(=O)Nc1nc2ccc(C(=O)c3cccs3)cc2[nH]1 [Nocodazole]
Plate 3 (% conversion): 40.67%

SMILES: O=C1OC(=O)[C@H]2[C@@H]1[C@@H]1CC[C@H]2O1 [Norcantharidin]
Plate 3 (% conversion): 35.60%

SMILES: CC(Cc1ccc(O)c(O)c1)C(C)Cc1ccc(O)c(O)c1 (stereo not shown) [Nordihydroguaiaretic acid, reference compound]
Inhibition at 20 µM [%]: 98.9%

SMILES: COc1ccc2c(c1OC)C(=O)O[C@@H]2[C@H]1c2c(cc3c(c2OC)OCO3)CCN1C.Cl [Noscapine hydrchloride]
Plate 3 (% conversion) [1]: 38.14%

SMILES: CC(CCc1ccccc1)NC(C)C(O)c1ccc(O)cc1 (stereo not shown) [Nylidrin hydrochloride]
Plate 3 (% conversion) [1]: 36.07%

SMILES: Nc1nc(OCc2ccccc2)c2nc[nH]c2n1 [O6-benzylguanine]
Plate 1 (% inhibition) [2]: -1.55%
Plate 1 (% conversion) [3]: 36.39%

SMILES: N[C@@H](COP(=O)(O)O)C(=O)O [O-Phospho-L-serine]
Plate 3 (% conversion) [1]: 35.30%

SMILES: CCCCCCCCCCCCCCCCCCc1ccc(C(=O)/C=C/C(=O)O)cc1 [OBAA]
Plate 1 (% inhibition) [2]: -7.39%
Plate 1 (% conversion) [3]: 38.35%

SMILES: CCCCCc1ccc(/C=C/C(=O)Nc2cc(Cl)ccc2C(=O)O)cc1 [ONO-RS-082]
Plate 3 (% conversion) [1]: 29.75%

SMILES: CC1COc2c(N3CCN(C)CC3)c(F)cc3c(=O)c(C(=O)O)cn1c23 (stereo not shown) [Ofloxacin]
Plate 3 (% conversion) [1]: 41.94%

SMILES: Cc1cc2c(s1)Nc1ccccc1N=C2N1CCN(C)CC1 [Olanzapine]
% conversion: 42.51%
inhibition at 20 µM: -17.7%

SMILES: CCCCCCCC/C=C\CCCCCCCC(=O)O [Oleic Acid]
Plate 3 (% conversion): 10.92%

SMILES: Cn1cnc2c(NCc3ccccc3)nc(NCCO)nc21 [Olomoucine]
Plate 3 (% conversion) [1]: 37.63%

SMILES: Cc1[nH]c(=O)c(C#N)cc1-c1ccc2nccn2c1.Cl [Olprinone hydrochloride]
% conversion [4]: 31.06%

SMILES: CCCCCCCC/C=C\CCCCCCCC(=O)NCc1ccc(O)c(OC)c1 [Olvanil]
Plate 3 (% conversion): 40.29%

SMILES: OCCN1CCN(CCCN2c3ccccc3C=Cc3ccccc32)CC1 [Opipramol dihydrochloride]
Plate 1 (% inhibition) [2]: -12.26%
Plate 1 (% conversion) [3]: 39.99%

SMILES: CN(CC[C@@H](Oc1ccc(C(F)(F)F)cc1)c1ccccc1)CC(=O)[O-].[Li+] [Org 24598 lithium salt]
Plate 1 (% conversion): 40.79%
Plate 1 (% inhibition): -14.64%

SMILES: O=C(O)/C=C/C(=O)O.O=C(O)/C=C/C(=O)O.O=C(O)/C=C/C(=O)O.O=C1CCCN1CC#CCN1CCCC1.O=C1CCCN1CC#CCN1CCCC1 [Oxotremorine sesquifumarate salt]
Plate 3 (% conversion): 14.90%

SMILES: CCN(CC)CC#CCOC(=O)C(O)(c1ccccc1)C1CCCCC1 (stereo not shown) [Oxybutynin Chloride]
Plate 3 (% conversion) [1]: 40.48%

SMILES: Cc1cc(C(C)(C)C)c(O)c(C)c1CC1=NCCN1 [Oxymetazoline hydrochloride]
Plate 3 (% conversion) [1]: 41.41%

SMILES: Nc1ccc(CCN2CCN(c3cccc(C(F)(F)F)c3)CC2)cc1 [PAPP]
% conversion: 42.06%
% inhibition (20 µM): -16.38%

SMILES: COc1cccc(-c2cc(=O)c3ccccc3o2)c1N [PD 98,059]
% conversion: 28.37%

SMILES: Cc1cccc(C(=O)NCN2CCN(c3ccccc3C#N)CC2)c1.O=C(O)/C=C\C(=O)O [PD 168,077 maleate]
% inhibition [5]: 1.73%
% conversion [4]: 35.88%

SMILES: CCN(CC)CCOc1ccc(Nc2ncc3cc(-c4c(Cl)cccc4Cl)c(=O)n(C)c3n2)cc1.O [PD-166285 hydrate]
% conversion: 50.97%
% inhibition (20 µM): -42.48%

SMILES: CCN(CC)CCOc1ccc(Nc2ncc3cc(-c4c(Cl)cccc4Cl)c(=O)n(C)c3n2)cc1 [PD-166285]
Plate 5 (% inhibition): -31.63%
Plate 5 (% conversion): 47.08%

SMILES: O=C(Nc1cccnc1)N1CCC(Cc2cccc(Oc3ccc(C(F)(F)F)cn3)c2)CC1 [PF 3845 hydrate]
Plate 1 (% conversion): 45.36%
Plate 1 (% inhibition): -28.26%

SMILES: O=C(Nc1cccnc1)N1CCC(Cc2cccc(Oc3ccc(C(F)(F)F)cn3)c2)CC1 [PF-3845]
Plate 5 (% inhibition): -5.26%
Plate 5 (% conversion): 38.10%

SMILES: CN(c1ccccc1CNc1nc(Nc2ccc3c(c2)CC(=O)N3)ncc1C(F)(F)F)S(C)(=O)=O.O [PF-431396 hydrate]
Plate 1 (% inhibition) [2]: -15.66%
Plate 1 (% conversion) [3]: 41.13%

Continued, values first:

Plate 5 (% inhibition): 28.06%
Plate 5 (% conversion): 26.77%
SMILES: CCCN1CCC[C@@H](c2cccc(S(C)(=O)=O)c2)C1 [OSU6162]

IC50 (50 nM His6-AspH315–758, 1.0 μM hFX-CP101–119, 3 μM 2OG, 2 μM Fe(II), 50 mM HEPES pH 7.5, 20 °C, mean ± SD, n = 2 (2,4-PDCA n = 10), read-out: IC50): 3.53 ± 0.71 µM
Inhibition at 20 µM [%]: 96.1%
% conversion [4]: 3.66%
SMILES: C=CCc1cccc(/C=N/NC(=O)CN2CCN(Cc3ccccc3)CC2)c1O [PAC-1, reference compound]

% inhibition [5]: -8.20%
% conversion [4]: 39.27%
Plate 5 (% inhibition): 58.03%
Plate 5 (% conversion): 16.57%
SMILES: Cn1c(=O)c(-c2c(Cl)cccc2Cl)cc2cnc(Nc3ccc(N4CCOCC4)cc3)nc21 [PD173952]

Plate 5 (% inhibition): 28.96%
Plate 5 (% conversion): 26.46%
SMILES: O=C(NOCC1CC1)c1ccc(F)c(F)c1Nc1ccc(I)cc1Cl [PD184352]

Plate 5 (% inhibition): -16.72%
Plate 5 (% conversion): 42.01%
SMILES: CCOC(=O)[C@H](CC(C)C)NC(=O)[C@@H](NC(=O)[C@H](Cc1c[nH]c2ccccc12)NC(=O)[C@@H]1CCCN1C(=O)[C@H](CCCCN)NC[C@@H](N)CCCCN)C(C)(C)C [PD-149163] (H-[X1]PW[Tle]L-OEt)

% conversion [4]: 36.15%
inhibition at 20 µM (LOPAC Plate 4, compound at 20 uM, read-out: % inhibition): 0.95%
Plate 5 (% inhibition): 18.88%
Plate 5 (% conversion): 29.89%
SMILES: COc1ccc(C2(O)OC(=O)C(c3ccc4c(c3)OCO4)=C2Cc2cc(OC)c(OC)c(OC)c2)cc1 (stereo not shown) [PD-156707]

Plate 3 (% conversion) [1]: 41.21%
Plate 5 (% inhibition): -29.14%
Plate 5 (% conversion): 46.23%
SMILES: CCN(CC)CCCCNc1ncc2cc(-c3c(Cl)cccc3Cl)c(NC(=O)NC(C)(C)C)nc2n1 [PD-161570]

Plate 5 (% inhibition): 16.45%
Plate 5 (% conversion): 30.72%
SMILES: Cc1c([N+](=O)[O-])cc2[nH]c(=O)c(=O)[nH]c2c1CN1CCCC1 [PD-161989]

% conversion [4]: 36.54%
Plate 5 (% inhibition): -5.94%
Plate 5 (% conversion): 38.34%
SMILES: COc1cc(OC)cc(-c2cc3cnc(N)nc3nc2NC(=O)NC(C)(C)C)c1 [PD-166866]

Plate 1 (% inhibition) [2]: -5.67%
Plate 1 (% conversion) [3]: 37.77%
Plate 5 (% inhibition): 46.58%
Plate 5 (% conversion): 20.46%
SMILES: Cc1cc(Nc2ncc3cc(-c4c(Cl)cccc4Cl)c(=O)n(C)c3n2)ccc1F [PD-180970]

Plate 5 (% inhibition): 35.16%
Plate 5 (% conversion): 24.35%
SMILES: CN(c1ccccc1CNc1nc(Nc2ccc3c(c2)CC(=O)N3)ncc1C(F)(F)F)S(C)(=O)=O [PF-431396]

Plate 5 (% inhibition): -92.31%
Plate 5 (% conversion): 67.73%
SMILES: Cn1cc(-c2[nH]c3cc(NC(=O)[C@H](N)C4CCCCC4)cc4c3c2C=NNC4=O)cn1 [PF-477736]

Plate 5 (% inhibition): 7.79%
Plate 5 (% conversion): 33.66%
SMILES: CS(=O)(=O)c1cccc(CNc2nc(Nc3ccc4c(c3)CCC(=O)N4)ncc2C(F)(F)F)c1 [PF-573228]
